Blank lines part the entries; values can stand above or below the compound they belong to.
Key:
Format in all cases: physicochemical
[1] = Release of drugs from Pickering particles in phosphate buffer (Example 3); conditions: for time within which almost all the drug was released: 1% (w/w) drug loaded Pickering dispersion, aqueous solution, room temperature; for release behaviour from the Pickering particles in the release medium: FIGS. 6, buffer medium
Procedure: Release of drugs from particles: Standard curve of drug was prepared in 10 mM phosphate buffer at pH 7.2. 10 mg of drug loaded lyophilized Pickering particles were added to 2 mL of buffer and the periodic isolated solution was analyzed by UV. The release was examined at room temperature. This was done in purpose to examine the drug release properties from the Pickering particles. The analysis of initial 30 min of release is considered as the burst release of drugs from the particles (FIGS. 6).
Release of ibuprofen from 1% (w/w) drug loaded Pickering dispersion. The release of ibuprofen was monitored by UV at the wavelength of 223 nm.
Release of ketoprofen from 1% (w/w) drug loaded Pickering dispersion. Standard curve of ketoprofen was prepared in 10 mM phosphate buffer at pH 7.2 at wavelength of 260 nm.
The particles were checked for the drug release with time. FIGS. 6 provides the release of the drug loaded Pickering particles in a buffer medium.

[2] = Encapsulation efficiency and loading capacity of solid lipid microspheres (UV after dissolving in chloroform)
Procedure: The standard curves were constructed in a concentration range of 3-70 µg/mL in 10 mM PBS with R^2 value of 0.9993 and in a concentration range of 15-800 µg/mL in chloroform with R^2 value of 0.9935.
Encapsulation efficiency is percentage of drug encapsulated in the microspheres relating to initial quantity used. 10 mg of microspheres were dissolved in 4 mL of chloroform. The absorbance of the drugs was measured using a UV-VIS spectrophotometer after appropriate dilution in order to reach calibration curve concentrations. The measured absorbance was then converted to the amount of drug by using standard calibration curve.
The loading capacity is usually expressed as the ratio of the weight of entrapped drug and the total weight of the lipid and coating particles in percentage.
Drug entrapment efficiency is calculated in order to determine the amount of drug that is actually retained in the microparticles related to the amount of drug that was mixed with lipid before particles formation, and usually expressed as a percentage.

[3] = In vitro drug release from beeswax microspheres (Example 6)
Procedure: 10 mg of microspheres were mixed with 5 mL of H2O or buffer and placed in the incubator. Three samples of each formulation were run at same conditions. A 3 mL samples were withdrawn at predetermined time intervals and an equal volume of fresh dissolution medium was replaced.
In vitro drug release for the obtained microspheres was studied in 5 ml of 10 mM buffer phosphate solution, pH 7.4 or in ddH2O at 37° C.

[4] = Fluazinam release from microparticles immersed in water; conditions: hydrogenated vegetable oil particles decorated with modified silica nanoparticles, about 20 microns, room temperature
[5] = Weight loss of DEET loaded microparticles at accelerated temperature; conditions: 30% w/w DEET loaded microparticles, 1:10 SiO2-NH2:hydrogenated vegetable oil, accelerated temperature 50° C., 1 h
Procedure: Drug loading: DEET insect repellent 30% (w/w): 30% w/w of DEET was loaded into the microparticles. The selection of the 30% drug content was based on the dissolving the DEET into the molten oil and then cooled down. The DEET loading was examined for 1:1, 1:2, 1:10 and 1:20 ratio SiO2-NH2:hydrogenated vegetable oil. The DEET loaded particles were tested by weight loss in the DEET loaded 1:10 ratio was examined. Accelerated temperature of 50° C. was used. The weight sample was heated to […] and monitored the weight loss for 1 h. 2% decrease in the weight loss of the DEET loaded microparticles was observed.

Structure (SMILES): CC(C)Cc1ccc(C(C)C(=O)O)cc1 (stereo not drawn) [ibuprofen]
time within which almost all the drug was released [1]: ≤ 30 min
release behaviour from the Pickering particles in the release medium [1]: sustained release
loading capacity ([2]; Ibuprofen in Beeswax-Starch MSs, average of three experiments): 15.7%
entrapment efficiency ([2]; Ibuprofen-loaded microspheres from beeswax and starch): 71%
time during which most of the drug was released ([3]; Ibuprofen from Beeswax-Starch MSs, PBS pH 7.4, 37° C.): 4 days
further continuation of release in water compared with buffer ([3]; Ibuprofen from Beeswax-Starch MSs, ddH2O, 37° C.): 7 days

Structure (SMILES): O=[N+]([O-])c1cc(C(F)(F)F)c(Cl)c([N+](=O)[O-])c1Nc1ncc(C(F)(F)F)cc1Cl [Fluazinam]
release behaviour in water [4]: constantly releasing

Structure (SMILES): CCN(CC)CC(=O)Nc1c(C)cccc1C [Lidocaine]
entrapment efficacy ([2]; Lidocaine in Beeswax-Chitosan particles (pH 6.5)): 49%
drug released in initial burst, first 24 h ([3]; Lidocaine from Beeswax-Chitosan microspheres, 10 mM phosphate buffer pH 7.4, 37° C.): about 70%

Next, values leading:

decrease in weight (weight loss) [5]: 2%
Structure (SMILES): CCN(CC)C(=O)c1cccc(C)c1 [DEET]

time within which almost all the drug was released [1]: ≤ 30 min
Structure (SMILES): CC(C(=O)O)c1cccc(C(=O)c2ccccc2)c1 (stereo not drawn) [ketoprofen]

release behaviour from the Pickering particles in the release medium [1]: sustained release
Structure (SMILES): CN(C)CCC[C@@]1(c2ccc(F)cc2)OCc2cc(C#N)ccc21 [escitalopram]

From patent US20230263754A1, “SOLID DISPERSIONS AND PARTICLES AND METHODS FOR CONTROLLED-RELEASE OF LIPID-SOLUBLE OR DISPESIBLE ACTIVES” (YISSUM RESEARCH DEVELOPMENT COMPANY OF THE HEBREW …, priority 2020, published 2023)
